Results: paper PMC7151106 (Pharmaceutics, 2020)

Columns and labels:
[1] = target: T1, SGLT1 (Homo sapiens, UniProt P13866); assay: Inhibition of [14C]AMG uptake in CHO-SGLT1 cells; assay type: cell-based; details: 10 μM [14C]AMG uptake, 2 h, CHO-SGLT1 minus mock; mean ± SD, triplicate
T1 construct: host or cells: CHO
T1 sequence (P13866 1-664): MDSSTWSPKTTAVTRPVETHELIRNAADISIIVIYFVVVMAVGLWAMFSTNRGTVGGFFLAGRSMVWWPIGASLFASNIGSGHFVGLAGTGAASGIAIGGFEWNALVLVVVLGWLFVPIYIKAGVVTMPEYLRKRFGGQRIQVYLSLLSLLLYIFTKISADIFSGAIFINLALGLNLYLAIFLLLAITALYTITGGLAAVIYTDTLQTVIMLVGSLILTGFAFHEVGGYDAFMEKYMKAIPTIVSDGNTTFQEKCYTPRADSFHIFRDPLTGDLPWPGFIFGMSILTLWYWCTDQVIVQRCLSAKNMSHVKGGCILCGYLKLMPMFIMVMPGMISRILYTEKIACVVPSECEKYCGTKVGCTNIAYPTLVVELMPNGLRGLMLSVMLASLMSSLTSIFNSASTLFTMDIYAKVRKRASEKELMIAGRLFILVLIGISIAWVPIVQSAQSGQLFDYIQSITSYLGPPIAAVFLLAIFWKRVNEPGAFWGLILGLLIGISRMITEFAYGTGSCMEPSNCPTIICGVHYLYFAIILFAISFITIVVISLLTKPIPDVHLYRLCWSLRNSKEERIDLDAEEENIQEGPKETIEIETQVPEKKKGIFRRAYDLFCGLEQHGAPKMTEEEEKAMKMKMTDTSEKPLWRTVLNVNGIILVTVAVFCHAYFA
Procedure: (§1) CHO cells overexpressing SGLT1 and SGLT2 cells (CHO-SGLT1 and -SGLT2) and CHO-mock cells were characterized as previously described. Cells were maintained in RPMI1640 medium supplemented with 10% fetal bovine serum and 200 µg/mL G418 at 37 °C in 5% CO2 conditions. CHO-SGLT1 and -SGLT2 cells were seeded at a density of 1 × 10^5 cells/well in 96-well plates. After 24 h, the growth medium was discarded from the cells, and the cells were washed with pre-warmed Na^+-free buffer (10 mM HEPES, 5 mM Tris, 140 mM choline chloride, 2 mM KCl, 1 mM CaCl2, 1 mM MgCl2, pH7.4) and incubated for 1 h in Na^+-free buffer. After replacing Na^+-free buffer with Na^+ gradient buffer (10 mM HEPES, 5 mM Tris, 140 mM NaCl, 2 mM KCl, 1 mM CaCl2, 1 mM MgCl2, pH7.4) containing 10 µM [^14C]AMG, the uptake of [^14C]AMG into the CHO-mock cells and CHO-SGLT1 and -SLGT2 cells was measured for 0.5, 1, 1.5, 2, and 3 h. After a predetermined incubation time, cells were washed three times with 200 µL of ice-cold Na^+-free buffer immediately after placing the plates on ice. Then, the cells were lysed with 10% SDS, and the cell lysates were mixed with Optiphase cocktail solution. Thereafter, the radioactivity of the cell lysates was measured using a liquid scintillation counter.
(§2) After 2 h, cells were washed three times with 200 µL of ice-cold Na^+-free buffer and the cells were lysed with 10% SDS (40 µL), followed by adding Optiphase cocktail solution (200 µL). The radioactivity of the cell lysates was measured using a liquid scintillation counter. The SGLT1 or SGLT2-mediated uptake of [^14C]AMG was calculated by the subtraction of the uptake rates of [^14C]AMG into the mock cells from those of the CHO-SGLT1 and -SLGT2 cells. In the inhibition studies, the percentages of the transport rate of AMG with or without SGLT2 inhibitors were calculated and the data were fitted to an inhibitory effect model. The IC50 (the concentration of the inhibitor to show half-maximal inhibition) values were calculated using Sigma Plot ver.10.0 (Systat Software, Inc.; San Jose, CA, USA).

[2] = target: T2, SGLT2 (Homo sapiens, UniProt P31639); assay: Inhibition of [14C]AMG uptake in CHO-SGLT2 cells; assay type: cell-based; details: for IC50: 10 μM [14C]AMG uptake, 2 h, CHO-SGLT2 minus mock, mean ± SD, triplicate
T2 construct: host or cells: CHO
T2 sequence (P31639 1-672): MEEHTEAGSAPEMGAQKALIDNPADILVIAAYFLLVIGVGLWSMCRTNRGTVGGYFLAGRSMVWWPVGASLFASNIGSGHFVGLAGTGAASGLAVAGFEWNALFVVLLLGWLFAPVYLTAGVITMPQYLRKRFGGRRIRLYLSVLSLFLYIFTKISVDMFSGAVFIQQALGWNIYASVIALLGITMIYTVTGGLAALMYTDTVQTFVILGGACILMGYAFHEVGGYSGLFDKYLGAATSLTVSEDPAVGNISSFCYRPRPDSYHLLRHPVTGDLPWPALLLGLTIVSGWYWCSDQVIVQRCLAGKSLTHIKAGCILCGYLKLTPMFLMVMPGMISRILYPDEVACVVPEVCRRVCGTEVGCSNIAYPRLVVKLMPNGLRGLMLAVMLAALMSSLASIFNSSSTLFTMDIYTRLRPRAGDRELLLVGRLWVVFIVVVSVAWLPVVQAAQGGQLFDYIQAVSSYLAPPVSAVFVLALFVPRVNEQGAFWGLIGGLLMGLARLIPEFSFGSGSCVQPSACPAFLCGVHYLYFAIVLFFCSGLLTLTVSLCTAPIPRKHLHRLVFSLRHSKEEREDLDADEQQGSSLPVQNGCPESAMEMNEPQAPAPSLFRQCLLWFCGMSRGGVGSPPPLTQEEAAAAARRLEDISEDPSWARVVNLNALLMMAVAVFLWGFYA
Procedure: as §1, §2

Row | Compound | IC50 [1] | Selectivity (IC50 Ratio of SGLT1/SGLT2) [2] | IC50 [2]
1 | OC[C@H]1O[C@@H](c2cc(Cc3ccc(C4CC4)cc3)c(Cl)c3c2CCO3)[C@H](O)[C@@H](O)[C@@H]1O [DWP16001] | 549 ± 140 nM | 667 | 0.8 ± 0.3 nM
2 | OC[C@H]1O[C@@H](c2ccc(F)c(Cc3cc4ccccc4s3)c2)[C@H](O)[C@@H](O)[C@@H]1O [Ipragliflozin, ipragliflozin] | 2330 ± 378 nM | 261 | 8.9 ± 1.7 nM
